Values after ≈ are worked out from the molar mass of the structure shown. “Also recorded” adds a separate entry of the source.
Experiments:
[1] = test system: respiratory syncytial virus (RSV); experiment: in vitro inhibition of viral infectivity, co-incubation of virus with HMO (Example 36); assay type: cell-based; details: virus dose about 500-1,000 units/mL; HMOs added at 1 mg/mL or 10 mg/mL
Experimental: In this Example, the effect of purified human milk oligosaccharides (HMO) on in vitro inhibition of viral infectivity is analyzed.
Samples are prepared by co-incubation of a uniform virus dose of from about 500 units/mL to about 1,000 units/mL of one of three respiratory viruses: (1) respiratory syncytial virus (RSV); (2) human parainfluenza virus (HPIV3); or (3) H1N1 influenza virus with one of the following HMOs: (1) 3′-sialyllactose (3′SL); (2) 6′-sialyllactose (6′SL); (3) 3′-fucosyllactose (3′FL); (4) 2′-fucosyllactose (2′FL); (5) lacto-N-neotetraose (LNnT); or (6) sialic acid (SA). The HMOs are added at concentrations of either 1 mg/mL or 10 mg/mL.

H1N1 influenza virus [2] = experiment: microbe, parasite or virus in culture; assay type: cell-based
[3] = test system: interferon-inducible protein 10 (IP-10); experiment: IP-10 in supernatants of HMO-pretreated, RSV-infected peripheral blood mononuclear cells (Example 39); assay type: cell-based, human; details: for IP-10 in virus-infected variables: 24 hour pretreatment, both donors, 24 and 48 hours post-infection; for IP-10 level reached compared with uninfected controls / effectiveness at dampening virus-induced inflammation (decrease in IP-10) compared with 3′SL: RSV-infected PBMCs; for reducing inflammation caused by RSV: pretreatment for 24 hours
Experimental: (§1) Specifically, either 3′SL or 6′SL is added, at concentrations of 0.1 mg/mL, 0.2 mg/mL, or 0.5 mg/mL to fresh peripheral blood mononuclear cells and incubated at 37° C. in 5% CO2 to pretreat the cells for approximately 24 hours. LNnT is added, at concentrations of 0.1 mg/mL, 0.2 mg/mL, or 1 mg/mL to fresh peripheral blood mononuclear cells and incubated at 37° C. in 5% CO2 to pretreat the cells for approximately 24 hours. Lactose is included as a carbohydrate control. Matched endotoxin unit concentration controls are included to allow differentiation of ingredient effects from inherent low levels of endotoxin. Some variables are then incubated with RSV at a multiplicity of infection (MOI) of 0.1 for approximately 1 hour at 37° C. in 5% in CO2. Uninfected control variables are incubated with medium for approximately 1 hour at 37° C. in 5% CO2. After approximately one hour, fresh medium alone, or fresh medium containing the appropriate concentration of 3′SL, 6′SL, LNnT, lactose, or endotoxin is added to the appropriate tubes and the cells are incubated for 48 hours at 37° C. in 5% CO2. Supernatants are collected at 24 and 48 hours post-infection.
(§2) Cytokines are measured in supernatants for each variable at 24 and 48 hours to assess the effects of HMOs on the early immune response to RSV. Cytokines are measured using custom Bio-Plex Human cytokine kits from Bio-Rad. Results for interferon-inducible protein 10 (IP-10, also known as CXCL 10) are shown in FIGS. 3 and 4 for 3′SL and 6′SL, and in FIGS. 5 and 6 for LNnT. IP-10 is a CXC chemokine that attracts, binds to and activates the CXCR3 receptor on natural killer cells and memory T cells. IP-10 is expressed by monocytes and a number of other cells, and is induced by interferon. A positive correlation exists between RSV clinical disease severity in children (as measured by: length of hospital stay, fever, and number of days supplemental O2 is required) and serum IP-10. Therefore, a decrease in IP-10 signals a decrease in severity of RSV disease experienced.

interleukin 10 (IL-10) = experiment: IL-10 in supernatants of HMO-pretreated peripheral blood mononuclear cells with or without RSV (Example 39); assay type: cell-based, human; details: in the presence or absence of RSV
Experimental: as §1, with “After approximately one hour, fresh medium alone, or fresh medium containing the appropriate concentration of 3′SL, 6′SL, LNnT, lactose, or endotoxin is added to the appropriate tubes and the cells are incubated for 48 hours at 37° C. in 5% CO2. Supernatants are collected at 24 and 48 hours post-infection.” left out
Cytokines are measured in supernatants for each variable at 24 and 48 hours to assess the effects of HMOs on the early immune response to RSV. Cytokines are measured using custom Bio-Plex Human cytokine kits from Bio-Rad. […] A positive correlation exists between RSV clinical disease severity in children (as measured by: length of hospital stay, fever, and number of days supplemental O2 is required) and serum IP-10. […]

[4] = test system: monocyte-derived cytokines; experiment: monocyte-derived cytokines in supernatants of HMO-treated peripheral blood mononuclear cells (Example 39); assay type: cell-based, human
Experimental: as §1, §2

[5] = test system: human parainfluenza virus (HPIV3); experiment: microbe, parasite or virus in culture; assay type: cell-based; details: virus dose about 500-1,000 units/mL, HMOs added at 1 mg/mL or 10 mg/mL
Interleukin 8 (IL-8) = experiment: IL-8 in supernatants of PBMCs treated with 3′SL and/or 6′SL with or without RSV (Example 40); assay type: cell-based, human; details: in the presence of RSV (MOI 0.1); individual 0.1-0.5 mg/mL, combinations 0.2-1.0 mg/mL total; FIG. 11
Experimental: In this example, the combination of 3′SL and 6′SL to reduce the inflammatory cytokine IL-8 in vitro is analyzed.
Specifically, 3′SL and 6′SL are added individually at concentrations of 0.1 mg/mL, 0.2 mg/mL, or 0.5 mg/mL or in combination (Combo 1=1 part 3′SL to 1 part 6′SL; Combo 2=1 part 3′SL to 2 parts 6′SL), at total concentrations of 0.2 mg/mL, 0.4 mg/mL, or 1.0 mg/mL to fresh peripheral blood mononuclear cells (PBMCs) and incubated at 37° C. in 5% CO2 to pretreat the cells for approximately 24 hours. Lactose is included as a carbohydrate control. Matched endotoxin unit concentration controls are included to allow differentiation of ingredient effects from inherent low levels of endotoxin. After approximately 24 hours, some variables are then incubated with RSV at a multiplicity of infection (MOI) of 0.1 for approximately 1 hour at 37° C. in 5% in CO2. Uninfected control variables are incubated with medium for approximately 1 hour at 37° C. in 5% CO2. […] Cytokines are measured in supernatants for each variable at 24 and 48 hours to assess the effects of the 3′SL and/or the 6′SL on the early immune response to RSV. Cytokines are measured using custom Bio-Plex Human cytokine kits from Bio-Rad. […]

H1N1 influenza virus [6] = experiment: organism not typed; assay type: cell-based; details: HMO at 10 mg/mL, MDCK cells, FIG. 1
[7] = virus dose about 500-1,000 units/mL, HMOs added at 1 mg/mL or 10 mg/mL
[8] = in the presence or absence of the virus

Compound	IC50 (mg HMO/mL) RSV [1]	IC50 (mg HMO/mL) H1N1 Influenza (H1N1 influenza virus [2]; [7])	IP-10 in virus-infected variables ([3]; RSV MOI 0.1)	IP-10 level reached compared with uninfected controls [3]	effectiveness at dampening virus-induced inflammation (decrease in IP-10) compared with 3′SL [3]	reducing inflammation caused by RSV [3]	IL-10 concentration (interleukin 10 (IL-10))	immunomodulation: induces and/or modifies production of monocyte-derived cytokines [4, 8]	IC50 (mg HMO/mL) HPIV3 [5]	anti-viral activity against H1N1 influenza virus (H1N1 influenza virus [2]; HMO at 1 mg/mL)	RSV-induced IP-10, Donor B ([3]; RSV MOI 0.1, 0.1-0.5 mg/mL, Donor B)	RSV-induced IP-10, Donor E ([3]; RSV MOI 0.1, 0.1-0.5 mg/mL, Donor E)	IL-8 concentration with increasing HMO concentration (Interleukin 8 (IL-8))	inhibition of virus infectivity (H1N1 influenza virus [6])	immunomodulation: induces and/or modifies production of monocyte-derived cytokines ([4]; in the absence of the virus)	IC50 ([5]; Human respirovirus 3, read-out: IC50 (mg HMO/mL) HPIV3)	IC50 (H1N1 influenza virus [2]; Influenza A virus, H1N1, virus dose about 500-1,000 units/mL, HMOs added at 1 mg/mL or 10 mg/mL, read-out: IC50 (mg HMO/mL) H1N1 Influenza)	inhibition at 10000 µg/mL (H1N1 influenza virus [6]; read-out: inhibition of virus infectivity)
CC(=O)N[C@H]1[C@H](O[C@H]2[C@@H](O)[C@@H](CO)O[C@@H](O[C@H]3[C@H](O)[C@@H](O)C(O)O[C@@H]3CO)[C@@H]2O)O[C@H](CO)[C@@H](O[C@@H]2O[C@H](CO)[C@H](O)[C@H](O)[C@H]2O)[C@@H]1O (mixture of isomers) [LNnT, lacto-N-neotetraose]	>10 mg HMO/mL	>10 mg HMO/mL	clearly downregulates IP-10	reduce IP-10 to levels found in uninfected controls	more effective than 3′SL	effective in reducing inflammation caused by RSV	increases IL-10 concentration in a dose-dependent manner	immunomodulatory										
CC(=O)N[C@H]1[C@H]([C@H](O)[C@H](O)CO)O[C@@](O[C@H]2[C@@H](O)[C@@H](CO)O[C@@H](O[C@H]3[C@H](O)[C@@H](O)C(O)O[C@@H]3CO)[C@@H]2O)(C(=O)O)C[C@@H]1O (some centres unmarked) [3′SL, 3′-sialyllactose]	>10 mg HMO/mL	~5 mg HMO/mL	dampen RSV-induced IP-10			effective in reducing inflammation caused by RSV		immunomodulatory	>10 mg HMO/mL	inhibited	not effective	downregulates RSV-induced IP-10	increase IL-8					
CC(=O)N[C@H]1[C@H]([C@H](O)[C@H](O)CO)O[C@@](OC[C@H]2O[C@@H](O[C@H]3[C@H](O)[C@@H](O)[C@H](O)O[C@@H]3CO)[C@H](O)[C@@H](O)[C@H]2O)(C(=O)O)C[C@@H]1O [6′SL, 6′-sialyllactose]	>10 mg HMO/mL	~10 mg HMO/mL	clearly downregulates IP-10	reduce IP-10 to levels found in uninfected controls	more effective at downregulation of IP-10; also recorded: more effective than 3′SL	effective in reducing inflammation caused by RSV	increases interleukin 10 (IL-10) concentration in a dose-dependent manner		>10 mg HMO/mL				increase IL-8	approximately 60%	immunomodulatory			
CC(=O)N[C@H]1[C@H]([C@H](O)[C@H](O)CO)OC(O)(C(=O)O)C[C@@H]1O (some centres unmarked) [SA, sialic acid]																~2000 µg/mL (≈ 6.47 mM)	~5000 µg/mL (≈ 16.2 mM)	> 90%

Source: patent US10709720B2, “Human milk oligosaccharides for modulating inflammation” (priority 2010, dated 2020)
